ChEMBL document CHEMBL5120922, “Discovery, Optimization, and Evaluation of Potent and Selective PI3Kδ-γ Dual Inhibitors for the Treatment of B-cell Malignancies” (J Med Chem, 2022)
pIC50: −log10 of the molar value.

What was measured:
[1] = Half life in Sprague-Dawley rat at 5 mg/kg, iv measured upto 24 hrs by LC-MS/MS analysis; type: ADME, organism-based; settings: in vivo
DOHH-2 [2] = assay: Induction of cell cycle arrest in human DOHH-2 cells assessed as accumulation of cells at G2/M phase at 0.5 uM incubated for 24 hrs in presence of ibrutinib by PI staining based flow cytometry analysis (reference value: 21.42 %); type: functional
[3] = Tmax in Sprague-Dawley rat at 5 mg/kg, iv measured upto 24 hrs by LC-MS/MS analysis; type: ADME, organism-based; settings: in vivo
DOHH-2 [4] = assay: Induction of apoptosis in human DOHH-2 cells assessed as viable cells at 2 uM incubated for 48 hrs in presence of ibrutinib by annexin V-FITC and PI staining based flow cytometry analysis (reference value: 95.4 %); type: functional; settings: read-out: Activity
[5] = Tmax in Sprague-Dawley rat at 10 mg/kg, po measured upto 24 hrs by LC-MS/MS analysis; type: ADME, organism-based; settings: in vivo
DOHH-2 [6] = assay: Induction of cell cycle arrest in human DOHH-2 cells assessed as accumulation of cells at S phase at 0.5 uM incubated for 24 hrs by PI staining based FACScan flow cytometry analysis (reference value: 55.11 %); type: functional
SUD4 = assay: Antiproliferative activity against human SU-DHL-4 cells assessed as cell growth inhibition measured after 72 hrs by MTT assay; type: functional, cell-based; settings: SU-DHL-4, 72 h
SU-DHL-6 [7] = assay: Induction of cell cycle arrest in human SU-DHL-6 cells assessed as accumulation of cells at G0/G1 phase at 0.5 uM incubated for 24 hrs in presence of ibrutinib by PI staining based FACScan flow cytometry analysis (reference value: 55.61 %); type: functional
DOHH-2 [8] = assay: Induction of cell cycle arrest in human DOHH-2 cells assessed as accumulation of cells at G0/G1 phase at 0.5 uM incubated for 24 hrs by PI staining based flow cytometry analysis (reference value: 23.47 %); type: functional
[9] = AUC(0 to t) in Sprague-Dawley rat at 2 mg/kg, iv measured upto 24 hrs by LC-MS/MS analysis; type: ADME, organism-based; set-up: time < 24 hrs, dose 2 mg/kg, route iv; settings: in vivo
DOHH-2 [10] = assay: Induction of apoptosis in human DOHH-2 cells assessed as necrotic cells at 2 uM incubated for 48 hrs by annexin V-FITC and PI staining based flow cytometry analysis (Rvb =0.29 %); type: functional
DOHH-2 [11] = assay: Induction of apoptosis in human DOHH-2 cells assessed as early apoptotic cells at 2 uM incubated for 48 hrs in presence of ibrutinib by annexin V-FITC and PI staining based flow cytometry analysis (reference value: 2.09 %); type: functional
SU-DHL-6 [12] = assay: Induction of cell cycle arrest in human SU-DHL-6 cells assessed as accumulation of cells at G2/M phase at 0.5 uM incubated for 24 hrs in presence of ibrutinib by PI staining based FACScan flow cytometry analysis (reference value: 20.21 %); type: functional

half-life [1]: 167 min
Tmax [3]: 4.8 min
Tmax [5]: 49.8 min
AUC(0-t) at 24 h [9]: 1150 ng·h/mL
Compound: C[C@H]1CC[C@@H](c2nc3cccc(Cl)c3c(=O)n2-c2cccnc2)N1c1nc(N)nc(N)c1C#N
Activity (DOHH-2 [2]): 20.03%
viability at 2 µM (DOHH-2 [4]): 23.5%
Activity (DOHH-2 [6]): 43.53%
pIC50 (SUD4): 7.52
Activity (SU-DHL-6 [7]): 79.73%
Activity (DOHH-2 [8]): 36.44%
Activity (DOHH-2 [10]): 1.45%
Activity (DOHH-2 [11]): 48.9%
Activity (SU-DHL-6 [12]): 4.62%
